Test results: patent publication US4180506A, “6β-Bromo penicillanic acid” (priority 1978, dated 1979)
Where two headings read alike, the source gives them in different places.

Tests used:
Vibrio percolans MB-1272 = test: Bilayer agar diffusion test, potentiation of Pen G in the presence of penicillinase; format: cell-based
S. aureus MB-3649 = test: Disc agar diffusion test, potentiation of Pen G and ampicillin; format: cell-based, Staphylococcus aureus MB-3649
S. aureus MB-3648 = test: as above; format: cell-based, Staphylococcus aureus MB-3648
[1] = system: two penicillinase-producing animal-pathogenic strains of Staphylococcus aureus; format: cell-based, Staphylococcus aureus MB-3648 and MB-3649
[2] = Ampicillin 15.7 μg/ml plus 4 μg/ml clavulanic acid
[3] = Ampicillin 15.7 μg/ml plus 32 μg/ml 6 BPA
[4] = Ampicillin 31.3 μg/ml plus 4 μg/ml clavulanic acid
[5] = Ampicillin 31.3 μg/ml plus 32 μg/ml 6 BPA
[6] = Ampicillin 62.5 μg/ml plus 4 μg/ml clavulanic acid
[7] = Ampicillin 62.5 μg/ml plus 32 μg/ml 6 BPA
[8] = Ampicillin 125 μg/ml plus 4 μg/ml clavulanic acid
[9] = Ampicillin 125 μg/ml plus 32 μg/ml 6 BPA
[10] = Ampicillin 250 μg/ml plus 4 μg/ml clavulanic acid
[11] = Ampicillin 250 μg/ml plus 32 μg/ml 6 BPA
[12] = subinhibitory concentration (1/4 MZC), extrapolated on standard/regression curve

Q: How did the zone of inhibition at 5 µg/mL (Vibrio percolans MB-1272; Comamonas terrigena, MB1272, Penase 10^4 units/ml, Pen G 5 μg/ml, no inhibitor, read-out: Zone of inhibition, Penase + Pen G Alone) turn out when `CC1(C)S[C@@H]2[C@H](NC(=O)Cc3ccccc3)C(=O)N2[C@H]1C(=O)O` [Pen G] was run?
A: 0 mm

Q: For `CC1(C)S[C@@H]2[C@H](NC(=O)[C@H](N)c3ccccc3)C(=O)N2[C@H]1C(=O)O` [Ampicillin], which Inhibition Zone Diameter, plus Clavulanic Ac (S. aureus MB-3649; [2]) is on record?
A: 20 mm

Q: What about the Inhibition Zone Diameter, plus 6 BPA (S. aureus MB-3649; [3]) of the same compound?
A: 19 mm

Q: What about the Inhibition Zone Diameter, plus Clavulanic Ac (S. aureus MB-3649; [4]) of the same compound?
A: 23 mm

Q: And the Inhibition Zone Diameter, plus 6 BPA (S. aureus MB-3649; [5])?
A: 21 mm

Q: And the Inhibition Zone Diameter, plus Clavulanic Ac (S. aureus MB-3649; [6])?
A: 24 mm

Q: And the Inhibition Zone Diameter, plus 6 BPA (S. aureus MB-3649; [7])?
A: 23 mm

Q: And the Inhibition Zone Diameter, plus Clavulanic Ac (S. aureus MB-3649; [8])?
A: 25 mm

Q: What about the Inhibition Zone Diameter, plus 6 BPA (S. aureus MB-3649; [9]) of the same compound?
A: 24 mm

Q: And the Inhibition Zone Diameter, plus Clavulanic Ac (S. aureus MB-3649; [10])?
A: 24 mm

Q: What about the Inhibition Zone Diameter, plus 6 BPA (S. aureus MB-3649; [11]) of the same compound?
A: 29 mm

Q: What about the zone of inhibition at 15.7 µg/mL (S. aureus MB-3649; Staphylococcus aureus, MB3649, Ampicillin 15.7 μg/ml, read-out: Inhibition Zone Diameter, alone) of the same compound?
A: 0 mm

Q: And the zone of inhibition at 31.3 µg/mL (S. aureus MB-3649; Staphylococcus aureus, MB3649, Ampicillin 31.3 μg/ml, read-out: Inhibition Zone Diameter, alone)?
A: 0 mm

Q: What about the zone of inhibition at 62.5 µg/mL (S. aureus MB-3649; Staphylococcus aureus, MB3649, Ampicillin 62.5 μg/ml, read-out: Inhibition Zone Diameter, alone) of the same compound?
A: 0 mm

Q: And the zone of inhibition at 125 µg/mL (S. aureus MB-3649; Staphylococcus aureus, MB3649, Ampicillin 125 μg/ml, read-out: Inhibition Zone Diameter, alone)?
A: 17 mm

Q: And the zone of inhibition at 250 µg/mL (S. aureus MB-3649; Staphylococcus aureus, MB3649, Ampicillin 250 μg/ml, read-out: Inhibition Zone Diameter, alone)?
A: 18 mm

Q: And the zone of inhibition at 500 µg/mL (S. aureus MB-3649; Staphylococcus aureus, MB3649, Ampicillin 500 μg/ml, read-out: Inhibition Zone Diameter, alone)?
A: 20 mm

Q: And the zone of inhibition at 1000 µg/mL (S. aureus MB-3649; Staphylococcus aureus, MB3649, Ampicillin 1000 μg/ml, read-out: Inhibition Zone Diameter, alone)?
A: 25 mm

Q: And the Inhibition Zone Diameter, plus Clavulanic Ac (S. aureus MB-3648; [2])?
A: 22 mm

Q: What about the Inhibition Zone Diameter, plus 6 BPA (S. aureus MB-3648; [3]) of the same compound?
A: 23 mm

Q: What about the Inhibition Zone Diameter, plus Clavulanic Ac (S. aureus MB-3648; [4]) of the same compound?
A: 23 mm

Q: And the Inhibition Zone Diameter, plus 6 BPA (S. aureus MB-3648; [5])?
A: 23 mm

Q: What about the Inhibition Zone Diameter, plus Clavulanic Ac (S. aureus MB-3648; [6]) of the same compound?
A: 26 mm

Q: And the Inhibition Zone Diameter, plus 6 BPA (S. aureus MB-3648; [7])?
A: 24 mm

Q: And the Inhibition Zone Diameter, plus Clavulanic Ac (S. aureus MB-3648; [8])?
A: 27 mm

Q: What about the Inhibition Zone Diameter, plus 6 BPA (S. aureus MB-3648; [9]) of the same compound?
A: 25 mm

Q: What about the Inhibition Zone Diameter, plus Clavulanic Ac (S. aureus MB-3648; [10]) of the same compound?
A: 27 mm

Q: What about the Inhibition Zone Diameter, plus 6 BPA (S. aureus MB-3648; [11]) of the same compound?
A: 26 mm

Q: What about the zone of inhibition at 15.7 µg/mL (S. aureus MB-3648; Staphylococcus aureus, MB3648, Ampicillin 15.7 μg/ml, read-out: Inhibition Zone Diameter, alone) of the same compound?
A: 0 mm

Q: And the zone of inhibition at 31.3 µg/mL (S. aureus MB-3648; Staphylococcus aureus, MB3648, Ampicillin 31.3 μg/ml, read-out: Inhibition Zone Diameter, alone)?
A: 0 mm

Q: And the zone of inhibition at 62.5 µg/mL (S. aureus MB-3648; Staphylococcus aureus, MB3648, Ampicillin 62.5 μg/ml, read-out: Inhibition Zone Diameter, alone)?
A: 0 mm

Q: What about the zone of inhibition at 125 µg/mL (S. aureus MB-3648; Staphylococcus aureus, MB3648, Ampicillin 125 μg/ml, read-out: Inhibition Zone Diameter, alone) of the same compound?
A: 18 mm

Q: And the zone of inhibition at 250 µg/mL (S. aureus MB-3648; Staphylococcus aureus, MB3648, Ampicillin 250 μg/ml, read-out: Inhibition Zone Diameter, alone)?
A: 20 mm

Q: And the zone of inhibition at 500 µg/mL (S. aureus MB-3648; Staphylococcus aureus, MB3648, Ampicillin 500 μg/ml, read-out: Inhibition Zone Diameter, alone)?
A: 23 mm

Q: And the zone of inhibition at 1000 µg/mL (S. aureus MB-3648; Staphylococcus aureus, MB3648, Ampicillin 1000 μg/ml, read-out: Inhibition Zone Diameter, alone)?
A: 26 mm

Q: How did the “Potentiation of Pen G” value [1, 12] turn out when `O=C(O)[C@H]1/C(=C/CO)O[C@@H]2CC(=O)N21` [Clavulanic Acid] was run?
A: 64 fold

Q: And the Potentiation of ampicillin [1, 12]?
A: 32 fold

Q: What about the “1/4 of minimum zone-inducing concentration (1/4MZC)” value ([1]; substance alone vs either MB3648 or MB3649) of the same compound?
A: 4 µg/mL

Q: What about the “Zone of inhibition, Antibiotic + Penase + Pen G” value (Vibrio percolans MB-1272; 1 μg/ml, Penase 10^4 units/ml, Pen G 5 μg/ml) of the same compound?
A: 0 mm

Q: And the “Zone of inhibition, Antibiotic + Penase + Pen G” value (Vibrio percolans MB-1272; 2 μg/ml, Penase 10^4 units/ml, Pen G 5 μg/ml)?
A: 0 mm

Q: And the “Zone of inhibition, Antibiotic + Penase + Pen G” value (Vibrio percolans MB-1272; 4 μg/ml, Penase 10^4 units/ml, Pen G 5 μg/ml)?
A: 0 mm

Q: What about the “Zone of inhibition, Antibiotic + Penase + Pen G” value (Vibrio percolans MB-1272; 8 μg/ml, Penase 10^4 units/ml, Pen G 5 μg/ml) of the same compound?
A: 0 mm

Q: And the “Zone of inhibition, Antibiotic + Penase + Pen G” value (Vibrio percolans MB-1272; 16 μg/ml, Penase 10^4 units/ml, Pen G 5 μg/ml)?
A: 10 mm

Q: What about the “Zone of inhibition, Antibiotic + Penase + Pen G” value (Vibrio percolans MB-1272; 31 μg/ml, Penase 10^4 units/ml, Pen G 5 μg/ml) of the same compound?
A: 21 mm

Q: And the zone of inhibition at 1 µg/mL (Vibrio percolans MB-1272; Comamonas terrigena, MB1272, 1 μg/ml, Penase 10^4 units/ml, read-out: Zone of inhibition, Antibiotic + Penase)?
A: 0 mm

Q: What about the zone of inhibition at 1 µg/mL (Vibrio percolans MB-1272; Comamonas terrigena, MB1272, 1 μg/ml, read-out: Zone of inhibition, Antibiotic Alone) of the same compound?
A: 0 mm

Q: And the zone of inhibition at 2 µg/mL (Vibrio percolans MB-1272; Comamonas terrigena, MB1272, 2 μg/ml, Penase 10^4 units/ml, read-out: Zone of inhibition, Antibiotic + Penase)?
A: 0 mm

Q: And the zone of inhibition at 2 µg/mL (Vibrio percolans MB-1272; Comamonas terrigena, MB1272, 2 μg/ml, read-out: Zone of inhibition, Antibiotic Alone)?
A: 0 mm

Q: And the zone of inhibition at 4 µg/mL (Vibrio percolans MB-1272; Comamonas terrigena, MB1272, 4 μg/ml, Penase 10^4 units/ml, read-out: Zone of inhibition, Antibiotic + Penase)?
A: 0 mm

Q: What about the zone of inhibition at 4 µg/mL (Vibrio percolans MB-1272; Comamonas terrigena, MB1272, 4 μg/ml, read-out: Zone of inhibition, Antibiotic Alone) of the same compound?
A: 0 mm

Q: What about the zone of inhibition at 8 µg/mL (Vibrio percolans MB-1272; Comamonas terrigena, MB1272, 8 μg/ml, read-out: Zone of inhibition, Antibiotic Alone) of the same compound?
A: 0 mm

Q: What about the zone of inhibition at 16 µg/mL (Vibrio percolans MB-1272; Comamonas terrigena, MB1272, 16 μg/ml, Penase 10^4 units/ml, read-out: Zone of inhibition, Antibiotic + Penase) of the same compound?
A: 10 mm

Q: And the zone of inhibition at 16 µg/mL (Vibrio percolans MB-1272; Comamonas terrigena, MB1272, 16 μg/ml, read-out: Zone of inhibition, Antibiotic Alone)?
A: 8 mm

Q: And the zone of inhibition at 31 µg/mL (Vibrio percolans MB-1272; Comamonas terrigena, MB1272, 31 μg/ml, Penase 10^4 units/ml, read-out: Zone of inhibition, Antibiotic + Penase)?
A: 21 mm

Q: And the zone of inhibition at 31 µg/mL (Vibrio percolans MB-1272; Comamonas terrigena, MB1272, 31 μg/ml, read-out: Zone of inhibition, Antibiotic Alone)?
A: 20 mm

Q: What about the “Concentration required to produce a zone of inhibition in the presence of Pen G and Penase” value (Vibrio percolans MB-1272; Pen G 5 μg/ml, Penase 10^4 units/ml) of the same compound?
A: 16 µg/mL

Q: What about the “Amount of clavulanic acid required relative to 6 BPA to produce a zone of inhibition” value (Vibrio percolans MB-1272; in the presence of Pen G and Penase) of the same compound?
A: 64 times
